The nature of series [1]: solubility in water. As to conditions: 25 °C.
For series [2] the following is noted: pH 7, 25° C.; 'known to be'; cited from earlier work.
A short description of series [3]: physchem. Particulars: 25 °C, pH 7, aqueous buffer.

Results on three compounds are retold here after patent US10125075B2, “P-toluic acid production method” (TORAY INDUSTRIES, INC., priority 2015, dated 2018).

Values after ≈ are worked out from the molar mass of the structure shown. Where only a bound is given, the exact number is not on record here.

With `Cc1ccc(C(=O)O)cc1` [p-toluic acid], the solubility in series [1] (pH 0, aqueous buffer) was ≤ 0.1 mg/mL. The solubility in water in series [2] is 0.3 mg/mL (≈ 2.2 mM). In the case of `CC1C(O)CC(O)(C(=O)O)CC1O` (stereo not shown) [Compound (2)], the solubility in series [1] (pH 7, aqueous buffer) is ≥ 50 mg/mL. As to `CC1C(O)C=C(C(=O)O)CC1O` (stereo not shown) [Compound (1)], the solubility in series [3] was ≥ 50 mg/mL.
